Measurements reported in US9670244B2, “Oxysterol compounds and the hedgehog pathway” (THE REGENTS OF THE UNIVERSITY OF CALIFORNIA, priority 2006, dated 2017).
Values joined by “and” are separate entries in the source; they are usually repeats but may differ in a detail not shown here. Equal entries are not always repeated. “Also recorded” adds a separate entry of the source.

Assays:
[1] = tested on: Gli-dependent luciferase reporter; assay: Gli-dependent luciferase reporter (Gli-Luc) assay in M2 cells; assay type: cell-based, mouse; conditions: for Induction of Gli reporter activity: ShhN 200 ng/ml, oxysterols 5 μM, TO 1 or 5 μM, 48 hours; for Gli reporter activity (synthetic oxysterols, FIG. 10): M2-10B4 Marrow Stromal Cells
Protocol: (§1) Cells were plated into 24-well plates and transfected the next day with Gli-dependent firefly luciferase and Renilla luciferase vectors and where indicated, Smo or Ptch expression vectors. […] Cells were treated for 48 hours prior to assessing luciferase activity using the Dual Luciferase Reporter Assay System (Promega, Madison, Wis.) according to manufacturer's instructions. Experiments were performed in triplicate and error bars indicate one standard deviation.
To further examine Hh pathway activation by oxysterols, a reporter assay using a luciferase reporter driven by a multimerized Gli-responsive element (5′-[…]-3′) (SEQ ID NO:4) was used.

[2] = tested on: M2-10B4 marrow stromal cells; assay: Alkaline phosphatase activity assay in M2-10B4 marrow stromal cells; assay type: cell-based, mouse
Protocol: (§2) The cells used are the pluripotent M2 cells (M2-10B4) that we previously characterized for their ability to become osteoblastiic and adipocyte cells. […] These cells are derived from bone marrow, are easy to maintain and last for many passages in vitro. […] Among the markers of osteogenic differentiation that were assayed were alkaline phosphatase activity, osteocalcin mRNA expression and mineral formation in cultures of marrow stromal cells.
We tested the effect of the synthetic oxysterols, oxy-1 through oxy-15, on alkaline phosphatase activity in M2-10B4 marrow stromal cells. Cells were treated with the oxysterols for 4 days after which they were collected and analyzed by colorimetric assay for alkaline phosphatase activity.

[3] = tested on: M2-10B4 marrow stromal cells; assay: 45Ca incorporation (mineralization) assay in M2-10B4 marrow stromal cells; assay type: cell-based, mouse
Protocol: as §2
We tested the effect of oxysterols on mineralization in M2-10B4 marrow stromal cells. Cells were treated with the oxysterols for 14 days after which the amount of mineral formed in the cultures was quantified using a radioactive ^45Ca incorporation assay.

rat femur periosteum = assay: Rat periosteal femur model, bone formation scoring; assay type: in vivo; set-up: key to Bone formation Score, individual animal / Bone formation Score (radiograph scoring), individual animal: 4: Marked amount and contiguous on eriosteum; 3: Moderate amount and contiguous on eriosteum; 2: Small amount and contiguous on periosteum; 1: Small amount and small segments on periosteum; 0: None; conditions: for Bone formation score, Average / Bone formation score (radiograph scoring), Average: n=6
Protocol: Male SD rats were treated for two weeks with Oxy13 (or a control vehicle). The Oxy13 was delivered by an Alzet pump to the perioseum, in three doses or by daily injections. The treatment regimens were: two weeks treatment, n=6 per group, vehicle and three Oxy 13 doses continuous and two doses daily injection; and four weeks treatment, vehicle and two Oxy 13 doses, n=6/group. The bone in-growth endpoints that were evaluated were microradiography, histomorphometry and blinded, randomized visual scoring.

Gli-1 and Ptch mRNA = assay: Q-RT-PCR of hedgehog pathway genes in M2 cells; assay type: cell-based, mouse; conditions: for Inhibition of oxysterol-induced Gli-1 and Ptch mRNA expression: M2 cells, SS 24 hours, pretreatment or co-treatment with agent
Protocol: Q-RT-PCR was performed using reverse-transcribed RNA isolated from M2 cells using phenol/chloroform method. PCR reactions were performed using iQ SYBR Green Supermix and an iCycler RT-PCR Detection System (BIO-RAD Laboratories, Hercules, Calif.). Primer sequences for Gli-1, Gli-2, Gli-3, Shh and Ihh were kindly provided by Dr. Fanxin Long (Washington University, St. Louis, Mo.). Ptch and Smo primer sequences are available upon request. Q-RT-PCR data were normalized to cyclophilin expression and relative expression levels were calculated using the […] method (Livak et al. (2001) Methods 25, 402-408).

pMARCKS, pPKA, pCREB = assay: Western blotting of phosphorylated proteins in M2 cell lysates; assay type: cell-based, mouse; conditions: SS 5 μM 10 min to 48 hours; PMA 30 min
Protocol: After treatments, cells were lysed in lysis buffer, protein concentrations determined using the Bio-Rad protein assay (Hercules, Calif.), and SDS-PAGE was performed, probing for native and phosphorylated proteins.
We previously reported that oxysterol-induced osteoblastic differentiation of cells is mediated via protein kinase C (PKC)- and protein kinase A (PKA)-dependent mechanisms. The role of these signaling pathways in regulating the different markers of osteoblastic differentiation appears to be both specific and overlapping. To begin elucidating the possible role of PKC and PKA in mediating oxysterol-induced Hh pathway activation, we examined the effect of PKC and PKA inhibitors on markers of Hh pathway activation. […] Similarly, oxysterol-induced Gli-1 and Ptch expression was inhibited in cells whose PKC stores were depleted following overnight pretreatment with 1 μM PMA (FIG. 6c,d). We next examined whether oxysterols induced PKC activation by assessing the levels of phosphorylated MARCKS (pMARCKS), a PKC substrate, by Western blotting.
To examine the possible role of PKA in oxysterol-induced Hh pathway activation, the effect of PKA inhibitor, H-89, previously found to inhibit the induction of some, but not all, markers of osteoblastic differentiation, on oxysterol-induced Gli-1 and Ptch mRNA expression was assessed by Q-RT-PCR.

osteocalcin (OCN) mRNA = conditions: 4 μM pre-treatment, 5 μM SS 8 days
Protocol: (§3) Colorimetric alkaline phosphatase activity assay on whole cell extracts and Northern blotting for OCN and 18S rRNA were performed by conventional procedures. Gene expression was quantified using a Storm840 phosphorimager and ImageQuant software (Amersham, Piscataway, N.J.).

[4] = tested on: Gli-dependent luciferase reporter; conditions: 4 μM pre-treatment
Protocol: as §1

[5] = tested on: Runx2 DNA binding activity
Protocol: Oligonucleotides were annealed to their complementary sequences by boiling and cooling. The probes were end-labeled with γ^32P-ATP using polynucleotide kinase and column purified. […] Nuclear extracts (10 μg) were incubated in binding buffer (10 mM Tris pH 7.5, 100 mM NaCl, 1 mM DTT, 1 mM EDTA, 4% glycerol), 1 μg poly(dIdC) and 0.2 ng of labeled probe for 20 minutes at room temperature, and complexes were resolved on a cooled, 6% acrylamide 1×TBE gel. Subsequently, gels were dried and exposed to film.

Smo−/− MEFs = assay: Alkaline phosphatase assay in Smo-/- mouse embryonic fibroblasts; assay type: cell-based; conditions: two days; BMP-7 50 ng/ml
Protocol: as §3

[6] = Mus musculus, M210B4, 96 h, read-out: Fold Induction over Control Untreated Cells (alkaline phosphatase activity)
[7] = Mus musculus, M210B4, 336 h, read-out: 45Ca Incorporation (fold induction over control untreated cells)

CC(C)CCC[C@@H](C)[C@H]1CC[C@H]2[C@@H]3C(=O)C=C4C[C@@H](O)CC[C@]4(C)[C@H]3CC[C@]12C [7-ketocholesterol, reference compound]
Induction of Gli reporter activity [1]: not observed

CC(C)CCC[C@@H](C)[C@H]1CC[C@H]2[C@@H]3[C@H](O)C=C4C[C@@H](O)CC[C@]4(C)[C@H]3CC[C@]12C [7-α-hydroxycholesterol, reference compound]
Induction of Gli reporter activity [1]: not observed

Cc1cccc(C[C@](C)(O)C2CCC3C4CC=C5C[C@@H](O)CC[C@]5(C)C4CC[C@@]32C)c1 (some centres unmarked) [Oxy11]
Fold Induction over Control Untreated Cells (alkaline phosphatase activity) ([2]; 2.5 μM, 4 days): 6 fold
Gli reporter activity (synthetic oxysterols, FIG. 10) [1]: stimulate the Gli1 reporter; also recorded: stimulation of Gli reporter activity

CC(C)CCCC[C@](C)(O)[C@H]1CC[C@H]2[C@@H]3CC=C4C[C@@H](O)CC[C@]4(C)[C@H]3CC[C@@]21C [Oxy12, (3S,8S,9S,10R,13S,14S,17S)-2,3,4,7,8,9,10,11,12,13,14,15,16,17-tetradecahydro-17-((S)-2-hydroxy-7-methyloctan-2-yl)-10,13-dimethyl-1H-cyclopenta[a]phenanthren-3-ol]
fold induction at 5 µM [2, 6]: 22
fold induction at 10 µM [2, 6]: 80
fold induction at 5 µM [3, 7]: 2
fold induction at 10 µM [3, 7]: 4
fold induction at 15 µM [3, 7]: 7
Gli reporter activity (synthetic oxysterols, FIG. 10) [1]: stimulate the Gli1 reporter; also recorded: stimulation of Gli reporter activity

C=C(C)CCC[C@](C)(O)[C@H]1CC[C@H]2[C@@H]3CC=C4C[C@@H](O)CC[C@]4(C)[C@H]3CC[C@@]21C [Oxy13, (3S,8S,9S,10R,13S,14S,17S)-2,3,4,7,8,9,10,11,12,13,14,15,16,17-tetradecahydro-17-((S)-2-hydroxy-6-methylhept-6-en-2-yl)-10,13-dimethyl-1H-cyclopenta[a]phenanthren-3-ol]
fold induction at 2.5 µM [2, 6]: 200
fold induction at 5 µM [2, 6]: 334
fold induction at 5 µM [3, 7]: 5
fold induction at 10 µM [3, 7]: 34
fold induction at 15 µM [3, 7]: 38
Bone formation Score, individual animal (rat femur periosteum; Pump 2 wk 0.167 mg/ml): 3
Bone formation score, Average (rat femur periosteum; Pump 2 wk 0.167 mg/ml): 3.00
Bone formation Score, individual animal (rat femur periosteum; Pump 2 wk 1.67 mg/ml): 1 and 4 (3×) and 3 and 2
Bone formation score, Average (rat femur periosteum; Pump 2 wk 1.67 mg/ml): 3.00
Bone formation Score (radiograph scoring), individual animal (rat femur periosteum; Pump 4 wk 0.167 mg/ml): 0 and 2 (3×) and 3 (2×)
Bone formation score (radiograph scoring), Average (rat femur periosteum; Pump 4 wk 0.167 mg/ml): 2.00
Bone formation Score (radiograph scoring), individual animal (rat femur periosteum; Pump 4 wk 1.67 mg/ml): 2 (2×) and 3 and 1 (2×) and 0
Bone formation score (radiograph scoring), Average (rat femur periosteum; Pump 4 wk 1.67 mg/ml): 1.50
Gli reporter activity (synthetic oxysterols, FIG. 10) [1]: stimulate the Gli1 reporter; also recorded: stimulation of Gli reporter activity

CC(C)CCC[C@](C)(O)[C@H]1CC[C@H]2[C@@H]3CC=C4C[C@@H](O)CC[C@]4(C)[C@H]3CC[C@@]21C [Oxy 20S, 20(S)-hydroxycholesterol, reference compound]
fold induction at 7.5 µM [3, 7]: 4

O=S(=O)(NCCNC/C=C/c1ccc(Br)cc1)c1cccc2cnccc12 [Oxy H-89, H-89]
Inhibition of oxysterol-induced Gli-1 and Ptch mRNA expression (Gli-1 and Ptch mRNA): did not inhibit

CCCCCCCCCCCCCC(=O)O[C@@H]1[C@@H](C)[C@@]2(O)[C@@H](C=C(CO)C[C@]3(O)C(=O)C(C)=C[C@@H]23)[C@@H]2C(C)(C)[C@]12OC(C)=O [PMA, Phorbol 12-Myristate 13-Acetate]
Inhibition of oxysterol-induced Gli-1 and Ptch mRNA expression (Gli-1 and Ptch mRNA): inhibited
Phosphorylated MARCKS (pMARCKS) levels (pMARCKS, pPKA, pCREB): clearly induced MARCKS phosphorylation

O=S(=O)(c1ccccc1)N(CC(F)(F)F)c1ccc(C(O)(C(F)(F)F)C(F)(F)F)cc1 [TO-901317, reference compound]
Induction of Gli reporter activity [1]: no activation

CC1=C2C[C@H]3[C@@H](CC=C4C[C@@H](O)CC[C@@]43C)[C@@H]2CC[C@]12O[C@@H]1C[C@H](C)CN[C@H]1[C@H]2C [cyclopamine, reference compound]
Inhibition of SS-induced ALP activity ([2]; M2 cells, 5 μM SS, 3 days): significantly inhibited
Inhibition of oxysterol-increased mineralization ([3]; 4 μM pre-treatment, 5 μM SS 14 days): inhibited
Inhibition of oxysterol- or ShhN-induced Gli-luc activity ([1]; pre-treatment 2 hours, 4 μM): inhibited
Inhibition of oxysterol-induced OCN expression (osteocalcin (OCN) mRNA): inhibited
Inhibition of oxysterol-induced Gli-luc activity in C3H10T½ cells [4]: inhibited
Inhibition of oxysterol-stimulated Runx2 DNA binding activity [5]: completely inhibited

CC(=O)c1c(O)c(C)c(O)c(Cc2c(O)c3c(c(C(=O)/C=C/c4ccccc4)c2O)OC(C)(C)C=C3)c1O [rottlerin]
Inhibition of oxysterol-induced Gli-1 and Ptch mRNA expression (Gli-1 and Ptch mRNA): dose-dependently inhibited
Effect of agent alone on Gli-1 and Ptch gene expression (Gli-1 and Ptch mRNA; all concentrations tested, without SS): no significant effect on gene expression

B1: BMB-7: bone morphogenetic protein 7 (protein, UniProt P18075 293-431, looked up)
Bone morphogenetic protein 7: STGSKQRSQNRSKTPKNQEALRMANVAENSSSDQRQACKKHELYVSFRDLGWQDWIIAPEGYAAYYCEGECAFPLNSYMNATNHAIVQTLVHFINPETVPKPCCAPTQLNAISVLYFDDSSNVILKKYRNMVVRACGCH
ALP activity / osteoblastic differentiation in Smo−/− MEFs (Smo−/− MEFs): did induce ALP activity
